“Also recorded” adds a separate entry of the source.
Experiments:
Assay type in all cases: cell-based
LNCaP cells = experiment: Cell growth of LNCaP prostate cancer cells after treatment; conditions: for inhibition of growth of LNCaP cells: 72 hours of treatment, FIG. 7
Method: Cells were treated with either eugenol (0.25, 0.5, 0.75 or 1 mM) or 2-ME (0.5, 1, 2 or 3 mM) or both (0.25, 0.5, 0.75 or 1 mM of eugenol along with 0.5 mM of 2-ME). Cell growth was measured following 72 hours of treatment as described above.

DU145 cells = experiment: Cell growth of DU145 prostate cancer cells after treatment; conditions: Homo sapiens, DU-145, FIG. 6, read-out: concentration necessary to see 50% inhibition of growth
[1] = test system: prostate cancer cell lines (LNCaP, DU145) and brain and/or nervous system cancer cell line (DAOY); experiment: Cell proliferation of prostate and brain/nervous system cancer cell lines; conditions: DU145, DAOY cells
Source text: (§1) In a multitude of experiments, using prostate cancer cell lines (both androgen-dependent (LNCaP), and androgen-independent (DU145) cells), and a brain and/or nervous system cancer cell line (DAOY), the present inventors have studied the effects of 2-ME and 16-ES on cell proliferation and the induction of apoptosis, in a number of ways.

[2] = test system: prostate cancer cell lines (LNCaP, DU145) and brain and/or nervous system cancer cell line (DAOY); experiment: Induction of apoptosis in prostate and brain/nervous system cancer cell lines; conditions: DU145, DAOY cells
Source text: as §1

C=CCc1ccc(O)c(OC)c1 [eugenol]
inhibition of growth of LNCaP cells (LNCaP cells; 0.25 mM of eugenol): about 30% | IC50 (LNCaP cells; Homo sapiens, LNCaP, read-out: concentration necessary to see 50% inhibition of growth): ~750 µM | IC50 (DU145 cells): > 2000 µM

COc1cc2c(cc1O)CC[C@@H]1[C@@H]2CC[C@]2(C)[C@@H](O)CC[C@@H]12 [2-ME, 2-methoxyoestradiol]
inhibition of growth of LNCaP cells (LNCaP cells; 0.5 mM of 2-ME): about 20% | inhibition of cancerous cell growth [1]: significantly inhibits cancerous cell growth; also recorded: inhibits the growth | pro-apoptotic effects [2]: has pro-apoptotic effects

C[C@]12CC[C@@H]3c4ccc(O)cc4CC[C@H]3[C@@H]1C[C@H](O)[C@@H]2O [16-ES, 16-epiestriol]
inhibition of cancerous cell growth [1]: does not | pro-apoptotic effects [2]: does not

From patent US20040152685A1, “Agents and methods for the prevention of initial onset and recurrence of existing cancers” (priority 2001, published 2004)
